Measurements from patent US20240024403A1, “Compositions and Methods for Managing Weight” (Unigen, Inc., priority 2012, published 2024).

How the values were obtained:
Assay type in all cases: in vivo
[1] = tested on: leptin; test: Plasma leptin level in DIO mice (ELISA); details: for Leptin (ng/ml) 2-week / Leptin (ng/ml) 7-week: DIO mice plasma; for Leptin (ng/ml) 2-week: 2-week treatment; for Leptin (ng/ml) 7-week: 7-week treatment; for plasma leptin level vs HFD group: week 2 and week 7, Composition 2 1300 mg/kg/day, orlistat 40 mg/kg 2 times/day, sibutramine 10 mg/kg 1 time/day
Protocol: (§1) Obese mice were treated with various three component compositions to test the anti-obesity and appetite effects of such compositions. Three component Composition 1 (Magnolia:Morus:Yerba Mate) produced according to the Example 38, three component Composition 2 (Magnolia:Morus:Mutamba) produced according to the Example 42, three component Composition 3 (Morus: Rosemary:Yerba Mate) produced according to the Example 39, and three component Composition 9 (Morus:Rosemary:Areca) produced according to the Example 41, were each separately administrated orally to DIO mice as described in the Example 48. The high fat diet (HFD) mice were divided into multiple treatment groups with a total of 10 animals per group. The mice were treated with one of the following: Composition 1 (1300 mg/kg/day), Composition 2 (1300 mg/kg/day), Composition 3 (1700 mg/kg/day), or Composition 9 (1700 mg/kg/day). Control groups included a normal diet group given vehicle only (ND, negative control), a high fat diet group given vehicle only (HFD, negative control), an orlistat group (ORI, 40 mg/kg, 2 times/day, positive control), and a sibutramine group (10 mg/kg, 1 time/day, positive control). Body weight and feed intake were measured daily for 2 weeks after treatment and then twice a week until the end of the 7 week study. At week 2 and week 7 after treatment, mice were fasted for 16 hours and then five animals were examined to measure plasma concentrations of leptin and ghrelin. Leptin and ghrelin levels were measured by using commercial ELISA kits specific for leptin or ghrelin (Millipore Co., Billerica, MA) according to the manufacturer's instructions. Measurements were taken using a microplate reader (Victor™ X3, PerkinElmer Inc., USA) and analyzed with PerkinElmer 2030 workstation computer software.

[2] = tested on: ghrelin; test: Plasma active ghrelin level in DIO mice (ELISA); details: for Active Ghrelin (pg/ml) 2-week / Active Ghrelin (pg/ml) 7-week: DIO mice plasma; for Active Ghrelin (pg/ml) 2-week: 2-week treatment; for Active Ghrelin (pg/ml) 7-week: 7-week treatment; for active ghrelin level vs HFD group: week 2 and week 7, orlistat 40 mg/kg 2 times/day, sibutramine 10 mg/kg 1 time/day
Protocol: as §1

[3] = tested on: CCK peptide; test: CCK peptide levels in DIO mice (CCK ELISA); details: mice on high fat diet; after 7 weeks of administering; % ± SD
Protocol: Therefore, the effect on CCK peptide levels in mice from treatment with Composition 2 (Magnolia:Morus:Mutamba), produced according to the Example 42, or Composition 3 (Morus:Rosemary:Yerba Mate), produced according to the Example 39, was examined to determine the extent to which weight gain and/or appetite were affected through this peptide hormone pathway. Briefly, CCK peptide levels were measured after 7 weeks of administering Compositions […] and 3 to mice on a high fat diet as described in Example 48. Negative controls include mice on a normal diet (NC) and mice on a high fat diet (HFD), each group administered vehicle only. The positive controls were orlistat and sibutrimine. CCK levels were detected using a CCK ELISA assay kit according to the manufacturer's instructions (Abnova, Taipei City, Tiawan). Measurements were performed using microplate reader Victor™ X3 (PerkinElmer Inc., Waltham, MA) and computer software on the PerkinElmer 2030 workstation.

[4] = 14-day study in high-fat-diet fed C57BL/6J mice; details: 30 mg/kg daily oral, 14 days
Text: A 14-day study was used to evaluate the effect of Mutamba EtOH extract fraction 84/F6 on body weight gain in high-fat-diet (HFD) fed C57BL/6J mice. Male C57BL/6J mice at the age of 6 weeks were purchased from Charles River Laboratories (Wilmington, MA) and acclimated for one week. On the day 0 (treatment start), body weights were taken for all the mice and randomly assigned to a group of four treatment groups as follows: (1) 8 mice/group received positive control=Alli; (2) 15 mice/group received Mutamba fraction 84/F6; (3) 8 mice/group received vehicle only (0.5% carboxymethyl cellulose) given to HFD control; and (4) 8 mice/group received vehicle only given to untreated normal diet control. Mice received a daily oral dose of Alli at 30 mg/kg and Mutamba 84/F6 at 1 g/kg for 14 days. Once mice received their first respective dose, they were provided ad libitum a 60% kcal high fat-diet, except for the normal diet group. Body weights were taken daily for the duration of study except on weekends. […] Blood glucose levels were measured using the Contour blood glucose monitoring kit (Bayer Health Care). Total triglyceride and cholesterol levels were measured using the CardioChek Analyzer with PTS panel test strips (Polymer Technology System, Inc, Indianapolis, IN).

Structure (SMILES)	Leptin (ng/ml) 2-week [1]	Leptin (ng/ml) 7-week [1]	plasma leptin level vs HFD group [1]	Active Ghrelin (pg/ml) 2-week [2]	Active Ghrelin (pg/ml) 7-week [2]	active ghrelin level vs HFD group [2]	% CCK binding [3]	body weight gain vs vehicle treated HFD group [4]	fasting blood glucose, total cholesterol, triglyceride vs vehicle treated HFD group [4]
CCCCCCCCCCC[C@@H](C[C@@H]1OC(=O)[C@H]1CCCCCC)OC(=O)[C@H](CC(C)C)NC=O [ORI, orlistat]	11.6 ± 0.06 ng/mL	19.0 ± 0.24 ng/mL	significantly reduced leptin level after 2 weeks of treatment	1316.4 pg/mL	1353.7 pg/mL	no effect on active ghrelin levels at either week 2 or week 7	72.5 ± 3.4%	decrease in weight gain only on day 14 of treatment	statistically significant higher levels of fasting triglyceride
CC(C)CC(N(C)C)C1(c2ccc(Cl)cc2)CCC1 (stereo not shown) [SIB, sibutramine]	17.0 ± 0.43 ng/mL	20.4 ± 0.00 ng/mL	somewhat reduced leptin level after 2 weeks of treatment	1001.3 pg/mL	600.1 pg/mL	no effect on active ghrelin levels at either week 2 or week 7	12.3 ± 1.6%		
